Data as given in patent US10238713B2, “Cyclic tetrapeptides and therapeutic applications thereof” (LODZ UNIVERSITY OF TECHNOLOGY, priority 2010, dated 2019).
Non-standard residues stand in square brackets, D forms with d. Residues, ends and D or L forms follow the SMILES beside them. β3hF = N[C@H](CC(=O)O)Cc1ccccc1

Experiments:
[1] = tested on: CBA mice, cellular immune response to ovalbumin; assay: Delayed type hypersensitivity (DTH) test to ovalbumin; format: in vivo; settings: two 100 μg intraperitoneal doses; FIG. 7
Description: Male CBA mice 8-12 weeks old were delivered by The Institute of Laboratory Medicine, Lodz, Poland. The mice had free access to water and pelleted food. Ovoalbumin was from Sigma and the adjuvants from Difeo.
Mice were sensitized subcutaneously with 5 μg of ovalbumin (OVA) emulsified in Freund's complete adjuvant in the tail base. After 4 days the mice were challenged with 50 μg of OVA in Freund's incomplete adjuvant in the hind footpads. Following the next 24 hours, the footpad thickness was measured using a caliper. Controls (background response mice) were not sensitized but received the challenging dose of OVA. The compound of formula I-A and the reference compound were administered to mice in two 100 μg intraperitoneal doses, 2 h before and 24 h after the sensitizing dose of antigen.

[2] = tested on: BALB/c mice, contact sensitivity to oxazolone; assay: Contact sensitivity to oxazolone in BALB/c mice (ear edema, draining lymph node cells, auricle histology); format: in vivo
Description: Mice: BALB/c female mice, 8-10 week-old, delivered by the Institute of Laboratory Medicine, Łódź, Poland, were used for the study. The mice were fed a commercial, pelleted food and water ad libitum. The local ethics committee approved the study.
The test was performed according to Noonan et al. (Int. Arch. Allergy Appl. Immunol., 1978, 56, 523-532), with some modifications. Mice were shaved on the abdomen (2×2 cm area) and after 24 h 100 μl of 0.5% oxazolone in acetone was applied to the shaved area. The contact sensitivity reaction was elicited 5 days later by application of 50 μl of 1% oxazolone in acetone on both sides of the ears. Ear edema was measured 48 h later using a spring caliper. The results were presented as antigen-specific increase of ear thickness (i.e. the background (BG) ear thickness of mice was subtracted from the measured thickness).
In the experiment shown, the compound of formula I-A was applied topically as a 0.1% ointment on both sides of the ears (total volume of 50 μl per ear), at 24 h and 26 h after elicitation of the reaction with the second dose of oxazolone. Reference compounds were used in a similar fashion in the form of commercially available preparations.
Superficial parotid, mandibular and accessory mandibular lymph nodes were isolated, homogenized by pressing against a stainless screen into phosphate buffered solution (PBS), washed twice and re-suspended in PBS containing 0.2% Trypan blue. The total and nonviable cell numbers were determined using a light microscope and Bürker's hemocytometer. Mice treated only with the eliciting dose of antigen served as a background control.
The auricles were fixed in 4% formalin solution for 48 h, washed for 24 h, dehydrated in an alcohol series and embedded in paraffin. The paraffin blocks were sliced in a Micron HM310 microtome into 6 μm sections. The sections were stained with haematoxylin and eosin and with toluidine blue. The histological analysis was performed in a Nikon Eclipse 801 light microscope. On the histological slides containing cross-sections of auricles, the morphometric estimations of neutrophils, macrophages, lymphocytes and mast cells in the perivascular and subepithelial connective tissue were performed. The cells were counted on the area of 0.07 mm^2 at 400× magnification. Morphometric analysis was done with the aid of imagine software NIS-Elements (Nikon). For every examined group, 25 enumerations of neutrophils, macrophages, lymphocytes and mast cells were carried out.

[3] = tested on: mice, carrageenan-induced foot pad edema; assay: Carrageenan-induced foot-pad edema test; format: in vivo, mouse; settings: 4 h after carrageenan; peptides 250 μg i.p., DEX 25 μg i.p., 30 min before; FIGS. 17A-17C
Summary of the method: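 Mice received peptide 250 μg i.p. (DMSO/0.9% NaCl vehicle) 30 min before intradermal injection of 50 μl 2% carrageenan into the hind foot pad; dexamethasone 25 μg i.p. as reference. Foot-pad thickness measured by spring caliper at 2, 3 and 4 h; mean increase in mm ±SE, 5 mice/group.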

O=C1C[C@H](Cc2ccccc2)NC(=O)[C@@H]2CCCN2C(=O)[C@@H]2CCCN2C(=O)[C@H](Cc2ccccc2)N1 [I-A] (cyclo(FPP[β3hF]))
effect on delayed-type hypersensitivity reaction to OVA (footpad thickness) [1]: inhibited the delayed-type hypersensitivity reaction to OVA | suppressive action on DTH compared with reference compounds [1]: stronger than those of CLA and CsA | toxic effect on draining lymph node cells (proportions of viable and dead cells) ([2]; topical treatment, compared to control non-treated mice, FIG. 3): negligible toxic effect | number of cells in the draining lymph nodes ([2]; topical treatment, FIG. 2): decreased the numbers of lymphocytes in the draining lymph nodes to the level registered in non-sensitized mice | cell number and composition in the inflamed auricles (histology) ([2]; topical treatment, FIG. 4): almost entirely reversed the changes observed in control mice | inhibition of the ear edema (antigen-specific increase of ear thickness) ([2]; topical, I-A as 0.1% ointment, references as commercial preparations, 24 h and 26 h after elicitation, FIG. 1): about 80% | foot pad edema (increase of foot pad thickness), P vs Control [3]: 0.0001
